The source of these data is patent publication US9193722B2, “Tri-cyclic pyrazolopyridine kinase inhibitors” (Vertex Pharmaceuticals Incorporated, priority 2008, dated 2015).

Common to all, as to format: biochemical
One test has as its target PKC theta kinase (Homo sapiens, UniProt Q04759). Kind of test: PKC theta kinase inhibition, coupled-enzyme (NADH absorbance) assay, Ki. As to conditions: 240 μM ATP, 18 nM PKC theta kinase, 30° C. As for the experimental part: An assay buffer solution was prepared which consisted of 100 mM HEPES (pH 7.5), 10 mM MgCl2, 25 mM NaCl, 0.1 mM EDTA and 0.01% Brij. […] To 60 μL of this enzyme buffer, in a 384 well plate, was added 2 μL of VRT stock solution in DMSO. The mixture was allowed to equilibrate for 10 mins at 30° C. […] Ki values were calculated from initial rate data by non-linear regression using the Prism software package (Prism 4.0a, Graphpad Software, San Diego, Calif.).

A further test concerns the target PKC delta kinase (Homo sapiens, UniProt Q05655). Kind of test: PKC delta kinase inhibition, coupled-enzyme (NADH absorbance) assay, Ki. Particulars: 150 μM ATP, 46 nM PKC delta kinase, 30° C.; read-out: Ki PKC delta. As for the experimental part: (§1) An assay buffer solution was prepared which consisted of 100 mM HEPES (pH 7.5), 10 mM MgCl2, 25 mM NaCl, 0.1 mM EDTA and 0.01% Brij. […] To 16 μL of this enzyme buffer, in a 384 well plate, was added 1 μL of VRT stock solution in DMSO. The mixture was allowed to equilibrate for 10 mins at 30° C. The enzyme reaction was initiated by the addition of 16 μL stock ATP solution prepared in assay buffer to a final assay concentration of 150 μM. Initial rate data was determined from the rate of change of absorbance at 340 nm (corresponding to stoichiometric consumption of NADH) using a Molecular Devices Spectramax plate reader (Sunnyvale, Calif.) over 15 mins at 30° C. […] Ki values were calculated from initial rate data by non-linear regression using the Prism software package (Prism 4.0a, Graphpad Software, San Diego, Calif.).

The next test deals with PKC alpha kinase (Homo sapiens, UniProt P17252). Put plainly: PKC alpha kinase inhibition, coupled-enzyme (NADH absorbance) assay, Ki. As to conditions: 130 μM ATP, 4.5 nM PKC alpha kinase, 30° C. The method, then: as §1, with “EDTA, 100 μM CaCl2” for “EDTA”, “130” for “150”

PKC theta kinase, sequence (Q04759 whole entry): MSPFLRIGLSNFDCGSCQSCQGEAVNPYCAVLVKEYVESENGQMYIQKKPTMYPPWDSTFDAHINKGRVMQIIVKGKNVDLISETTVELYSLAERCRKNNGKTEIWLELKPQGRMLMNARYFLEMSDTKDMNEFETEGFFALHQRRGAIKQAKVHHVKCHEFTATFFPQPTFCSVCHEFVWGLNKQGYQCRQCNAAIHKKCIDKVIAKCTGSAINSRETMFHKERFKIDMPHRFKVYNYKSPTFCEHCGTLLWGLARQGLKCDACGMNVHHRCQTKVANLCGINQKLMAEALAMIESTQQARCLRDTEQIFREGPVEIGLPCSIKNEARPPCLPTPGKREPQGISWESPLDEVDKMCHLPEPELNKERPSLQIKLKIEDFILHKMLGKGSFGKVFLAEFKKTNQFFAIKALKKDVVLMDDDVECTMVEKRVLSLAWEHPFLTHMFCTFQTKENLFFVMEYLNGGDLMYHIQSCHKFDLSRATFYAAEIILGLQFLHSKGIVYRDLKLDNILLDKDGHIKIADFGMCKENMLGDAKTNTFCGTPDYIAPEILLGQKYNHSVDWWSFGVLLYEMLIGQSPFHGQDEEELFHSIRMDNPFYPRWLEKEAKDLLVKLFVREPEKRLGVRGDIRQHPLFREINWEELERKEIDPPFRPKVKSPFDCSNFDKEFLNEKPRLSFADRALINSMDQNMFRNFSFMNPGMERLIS
PKC delta kinase, sequence (Q05655 whole entry): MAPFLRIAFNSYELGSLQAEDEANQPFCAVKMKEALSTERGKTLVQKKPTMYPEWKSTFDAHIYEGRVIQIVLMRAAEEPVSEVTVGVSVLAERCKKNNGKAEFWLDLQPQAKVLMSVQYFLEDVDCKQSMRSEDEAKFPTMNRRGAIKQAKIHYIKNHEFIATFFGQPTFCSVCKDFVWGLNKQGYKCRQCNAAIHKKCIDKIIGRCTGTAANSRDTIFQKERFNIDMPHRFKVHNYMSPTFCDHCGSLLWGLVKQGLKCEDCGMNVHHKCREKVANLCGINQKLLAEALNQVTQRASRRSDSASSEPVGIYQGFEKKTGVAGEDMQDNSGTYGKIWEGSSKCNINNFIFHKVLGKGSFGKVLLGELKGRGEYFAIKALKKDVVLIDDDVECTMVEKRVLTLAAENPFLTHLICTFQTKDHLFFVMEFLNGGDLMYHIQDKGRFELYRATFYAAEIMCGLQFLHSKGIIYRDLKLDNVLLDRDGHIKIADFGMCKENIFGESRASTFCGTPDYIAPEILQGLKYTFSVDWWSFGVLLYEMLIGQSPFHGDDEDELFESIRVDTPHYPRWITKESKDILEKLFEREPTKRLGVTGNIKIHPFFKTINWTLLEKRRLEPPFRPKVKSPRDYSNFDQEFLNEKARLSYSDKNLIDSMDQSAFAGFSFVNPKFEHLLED

Turning to `c1cc(-c2n[nH]c3ncccc23)nc(N2CCCNCC2)c1` [Compound 1], the Ki at PKC theta kinase was under 50 nM; on PKC delta kinase, under 500 nM.
Regarding `C#Cc1cnc2[nH]nc(-c3cccc(N4CCCNCC4)n3)c2c1` [Compound 2], the Ki at PKC theta kinase is under 500 nM.
On to `Cc1ccc(N2CCNCC2)nc1-c1n[nH]c2ncccc12` [Compound 3], for which the results for the Ki at PKC alpha kinase, at PKC theta kinase and on PKC delta kinase were over 2800 nM, under 500 nM and under 2800 nM, respectively.
Turning to `CC(C)C[C@H]1CN(c2cccc(-c3n[nH]c4ncccc34)n2)CCN1` [Compound 7, (S)-3-(6-(3-isobutylpiperazin-1-yl)pyridin-2-yl)-1H-pyrazolo[3,4-b]pyridine], the Ki on PKC alpha kinase is under 2800 nM.
On to `c1cc(-c2n[nH]c3ncccc23)nc(N2CCNCC2)c1` [Compound 9], for which, at PKC alpha kinase, the Ki is under 2800 nM.
Still for that read-out and setting: the figure for `C[C@H]1CN(c2cccc(-c3n[nH]c4ncccc34)n2)CCN1` [Compound 19] is over 1250 nM; for `c1ccc(C2CN(c3cccc(-c4n[nH]c5ncccc45)n3)CCN2)cc1` (stereo not shown) [Compound 21] it is under 2800 nM; for `CC(C)[C@H]1CN(c2cccc(-c3n[nH]c4ncccc34)n2)CCN1` [Compound 62] it is under 2800 nM.
Still for that read-out and setting: the figure for `CC[C@@H]1CN(c2cccc(-c3n[nH]c4ncccc34)n2)CCN1` [Compound 67] is under 2800 nM; for `C[C@@H]1CN(c2cccc(-c3n[nH]c4ncccc34)n2)CCN1` [Compound 70] it is over 1250 nM.
On to `CC(C)C[C@H]1CN(c2ccc(F)c(-c3n[nH]c4ncccc34)n2)CCN1` [Compound 112], for which the Ki at PKC alpha kinase is over 1250 nM; at PKC delta kinase it was under 500 nM.
Regarding `CC(C)CC1(C)CN(c2ccc(C(F)(F)F)c(-c3n[nH]c4ncccc34)n2)CCC1N` (stereo not shown) [Compound 158], the Ki at PKC alpha kinase is under 500 nM.
The same measure, in the same setting: then `CC(C)C[C@H]1CN(c2cccc(-c3n[nH]c4ncccc34)n2)CC[C@H]1N` [Compound 168], with under 500 nM.
The molecule `CC(C)C(C)(O)C1CN(c2cccc(-c3n[nH]c4ncccc34)n2)CCN1` (stereo not shown) [Compound 178] registered a Ki at PKC theta kinase of under 50 nM.
Take `CC(C)C(C)(O)C1CN(c2ccc(F)c(-c3n[nH]c4ncccc34)n2)CCN1` (stereo not shown) [Compound 179]: the Ki at PKC alpha kinase was under 2800 nM; at PKC delta kinase it was under 500 nM.
On to `CC(C)C(C)(O)C1CN(c2ccc(F)c(-c3n[nH]c4ncccc34)n2)CCN1` (stereo not shown) [Compound 180], for which the Ki on PKC alpha kinase was over 1250 nM; on PKC delta kinase, under 500 nM.
Take `COC[C@H]1CN(c2ccc(F)c(-c3n[nH]c4ncccc34)n2)CCN1` [Compound 185]: the Ki at PKC alpha kinase was over 1250 nM.
In the case of `CC(C)C[C@@H]1CN(c2ccc(F)c(-c3n[nH]c4ncccc34)n2)CCN1` [Compound 192], the Ki at PKC alpha kinase is over 1250 nM; on PKC delta kinase, under 2800 nM.
The corresponding values for `CC(C)C(C)(O)C1CN(c2ccc(F)c(-c3n[nH]c4ncccc34)n2)CCN1` (stereo not shown) [Compound 200] are over 1250 nM and over 1250 nM.
For the molecule `CC(C)C(C)(O)C1CN(c2ccc(F)c(-c3n[nH]c4ncccc34)n2)CCN1` (stereo not shown) [Compound 201], the Ki on PKC alpha kinase is under 2800 nM; on PKC delta kinase, under 500 nM.
Taken in the same sequence, the figures for `CC(C)C(C)(O)C1CN(c2ccc(F)c(-c3n[nH]c4ncccc34)n2)CCN1` (stereo not shown) [Compound 204] were over 1250 nM and under 500 nM.
The corresponding values for `CC(C)C(C)(O)C1CN(c2ccc(F)c(-c3n[nH]c4ncccc34)n2)CCN1` (stereo not shown) [Compound 205] are over 1250 nM and over 1250 nM.
On to `CC(C)C(C)(O)C1CN(c2ccc(F)c(-c3n[nH]c4ncccc34)n2)CCN1C` (stereo not shown) [Compound 229], for which the Ki on PKC alpha kinase and at PKC delta kinase was over 1250 nM in each case.
With `CC(C)C(C)(O)C1CN(c2ccc(F)c(-c3n[nH]c4ncccc34)n2)CCN1C` (stereo not shown) [Compound 231], the results for the Ki at PKC theta kinase and at PKC delta kinase were under 50 nM and under 500 nM, respectively.
On PKC alpha kinase, `CC(C)C[C@@H]1CN(c2cccc(-c3n[nH]c4ncccc34)n2)CCN1` [Compound 235] yielded a Ki of under 2800 nM.
Turning to `CC(C)C(C)(O)C1CN(c2ccc(C(F)(F)F)c(-c3n[nH]c4ncccc34)n2)CCN1` (stereo not shown) [Compound 237], the Ki at PKC delta kinase was under 2800 nM.
`COC(C)(C(C)C)C1CN(c2ccc(F)c(-c3n[nH]c4ncccc34)n2)CCN1` (stereo not shown) [Compound 239]: the Ki on PKC alpha kinase was over 1250 nM.
In the case of `CC(N)[C@H]1CCCN(c2ccc(F)c(-c3n[nH]c4ncccc34)n2)C1` (stereo partly shown) [Compound 263], the Ki at PKC theta kinase is under 500 nM; on PKC delta kinase, under 2800 nM.
For the molecule `CC(O)(C1CC1)C1CN(c2ccc(F)c(-c3n[nH]c4ncccc34)n2)CCN1` (stereo not shown) [Compound 271], the figures for the Ki on PKC alpha kinase and on PKC delta kinase were over 1250 nM and under 500 nM, respectively.
The corresponding values for `CC(O)(C1CC1)C1CN(c2ccc(F)c(-c3n[nH]c4ncccc34)n2)CCN1` (stereo not shown) [Compound 272] are over 1250 nM and under 500 nM.
The corresponding values for `CC(O)(C1CC1)C1CN(c2ccc(F)c(-c3n[nH]c4ncccc34)n2)CCN1` (stereo not shown) [Compound 273] are over 1250 nM and under 2800 nM.
As to `C[C@](O)(c1ccccc1)[C@@H]1CN(c2ccc(F)c(-c3n[nH]c4ncccc34)n2)CCN1` [Compound 276], the Ki at PKC theta kinase was under 50 nM.
The same measure, in the same setting: the figure for `CC(C)C(O)[C@@H]1CCCN(c2ccc(F)c(-c3n[nH]c4ncccc34)n2)C1` (stereo partly shown) [Compound 279] is over 700 nM.
For `NCC1CN(c2ccc(F)c(-c3n[nH]c4ncccc34)n2)CCC1O` (stereo not shown) [Compound 297], the Ki on PKC delta kinase was over 1250 nM.
As for `Fc1ccc(N2CCCC(C3CCCN3)C2)nc1-c1n[nH]c2ncccc12` (stereo not shown) [Compound 315], on PKC theta kinase, the Ki is over 700 nM.
`CC(C)(C)CC(N)C1CCCN(c2ccc(F)c(-c3n[nH]c4ncccc34)n2)C1` (stereo not shown) [Compound 318]: the Ki at PKC delta kinase is under 2800 nM.
For the molecule `CC(O)(c1ccccc1)C1CN(c2ccc(F)c(-c3n[nH]c4ncccc34)n2)CCN1` (stereo not shown) [Compound 323], the values for the Ki on PKC theta kinase and on PKC delta kinase were under 50 nM and under 2800 nM, respectively.
Taken in the same sequence, the figures for `CC(C)CC1(C)CN(c2ccc(C(F)(F)F)c(-c3n[nH]c4ncccc34)n2)CCC1N` (stereo not shown) [Compound 388] were under 50 nM and under 500 nM.
Regarding `CCC(CC)C(N)C1CCCN(c2ccc(F)c(-c3n[nH]c4ncccc34)n2)C1` (stereo not shown) [Compound 392], the Ki at PKC delta kinase is over 1250 nM.
As for `CNC(C1CCCN(c2ccc(F)c(-c3n[nH]c4ncccc34)n2)C1)C(C)(C)C` (stereo not shown) [Compound 409], the values for the Ki on PKC theta kinase and at PKC delta kinase were under 50 nM and under 2800 nM, respectively.
With `CC1(C#N)CCN(c2ccc(C(F)(F)F)c(-c3n[nH]c4ncccc34)n2)CC1` [Compound 415], the Ki at PKC alpha kinase was over 1250 nM; at PKC theta kinase, over 700 nM.
Taken in the same sequence, the figures for `CC1(C#N)CCN(c2ccc(F)c(-c3n[nH]c4ncccc34)n2)CC1` [Compound 416] were over 1250 nM and over 700 nM.
The corresponding values for `CC(C)CC1(C#N)CCN(c2ccc(F)c(-c3n[nH]c4ncccc34)n2)CC1` [Compound 417] are over 1250 nM and over 700 nM.
For the molecule `CC(C)(C)C(N)C1CCN(c2ccc(F)c(-c3n[nH]c4ncccc34)n2)C1` (stereo not shown) [Compound 422], the Ki on PKC delta kinase is under 2800 nM.
Same read-out and setting: the figure for `CC(C)C(C)(O)C1CN(c2ccc(Cl)c(-c3n[nH]c4ncccc34)n2)CCN1` (stereo not shown) [Compound 438] is under 500 nM.
Turning to `CCC(N)C1(C(F)(F)F)CCN(c2ccc(F)c(-c3n[nH]c4ncccc34)n2)C1` (stereo not shown) [Compound 449], the results for the Ki at PKC theta kinase and on PKC delta kinase were over 700 nM and over 1250 nM, respectively.
`CC(C)C(C)(O)C1CN(c2cc(CO)cc(-c3n[nH]c4ncccc34)n2)CCN1` (stereo not shown) [Compound 455]: the Ki at PKC alpha kinase was over 1250 nM.
Regarding `N#CCCC1CN(c2ccc(C(F)(F)F)c(-c3n[nH]c4ncccc34)n2)CCC1O` (stereo not shown) [Compound 460], the Ki on PKC theta kinase was under 500 nM.
Consider `CC1(CN)CCN(c2ccc(C(F)(F)F)c(-c3n[nH]c4ncccc34)n2)CC1` [Compound 463], for which the Ki on PKC alpha kinase was over 1250 nM; on PKC theta kinase, over 700 nM.
Taken in the same sequence, the figures for `CCC1CN(c2ccc(C(F)(F)F)c(-c3n[nH]c4ncccc34)n2)CCC1CN` (stereo not shown) [Compound 465] were over 1250 nM and under 500 nM.
The corresponding values for `CC(C)CC1CN(c2cncc(-c3n[nH]c4ncccc34)n2)CCC1N` (stereo not shown) [Compound 468] are under 500 nM and under 50 nM.
Consider `CC(C)C(C)(O)C1CN(c2cncc(-c3n[nH]c4ncccc34)n2)CCN1` (stereo not shown) [Compound 470], for which the Ki on PKC alpha kinase is under 500 nM.
